Measurements reported in EP0305845A1, “Pyridyl ethanol amines, pharmaceutical compositions containing them and processes for their preparation” (Dr. Karl Thomae GmbH, priority 1987, dated 1989).
Counter-ions that a name gives are not always drawn.

Assays:
Assay type in all cases: in vivo
[1] = tested on: weiblichen Mäusen eigener Zucht; assay: Antiadipose effect a): increase of lipolysis measured as rise of serum glycerol in mice; details: same procedure as the blood glucose test
Description: (§1) Die antidiabetische Wirkung der erfindungsgemäßen Verbindungen läßt sich als eine blutzuckersenkende Wirkung bei Versuchstieren messen. Die zu untersuchenden Substanzen wurden dazu in 1,5%iger Methylzellulose suspendiert und weiblichen Mäusen eigener Zucht mittels Schlundsonde appliziert. 30 Minuten später wurde 1 g Glukose pro kg Körpergewicht in Wasser gelöst und subkutan appliziert. Weitere 30 Minuten später wurde aus dem retroorbitalen Venenplexus Blut entnommen. Aus dem Serum wurde Glukose mit der Hexokinase-Methode mit Hilfe eines Analysenphotometers bestimmt.
Die antiadipöse Wirkung der erfindungsgemäßen Verbindungen wurde in zwei Versuchsanordnungen nachgewiesen: a) In der ersten Versuchsanordnung wurde die Steigerung der Lipolyse am Anstieg des Glyzerins im Serum gemessen. Der Versuchsablauf ist identisch mit der zur Testung auf blutzuckersenkende Wirkung vorstehend beschriebenen Versuchsanordnung. Glyzerin wurde in einem kombinierten enzymatisch-kolorimetrischen Test mit Hilfe eines Analysenphotometers bestimmt. Die Ergebnisse sind in der nachfolgenden Tabelle in % einer mitgeführten Kontrollgruppe aufgeführt.

[2] = tested on: Mäusen; assay: Cardiac side effects: heart rate in mice by ECG-triggered tachograph; details: 1 hour after application
Description: Das Auftreten von unerwünschten Nebenwirkungen auf das Herz konnte für die erfindungsgemäßen Verbindungen für den therapeutisch angestrebten stoffwechselaktiven Dosisbereich ausgeschlossen werden. Als Nachweis diente die Messung der Herzfrequenz an Mäusen während der Testung auf blutzuckersenkende Wirkung (s.o.). Eine Stunde nach der oralen Applikation der Verbindungen wurde die Herzfrequenz mittels EKG-getriggertem Tachographen bestimmte. Die nachfolgende Tabelle gibt die Änderung der Herzfrequenz in % der Kontrollgruppe wieder.

[3] = tested on: Mäusen; assay: Antiadipose effect b): decrease of ovarian fat tissue weight in mice; details: dose 0,3 mg/kg once daily by gavage; fat tissue weighed on day 5
Description: b) In der zweiten Versuchsanordnung zur Erfassung antiadipö-ser Wirkung der erfindungsgemäßen Verbindungen wurde die Abnahme des Fettgewebes am Beispiel des Ovarfettgewebes gemessen. Die Verbindungen wurden zu diesem Zwecke Mäusen einmal täglich mittels Schlundsonde in 1,5%iger Methylzellulosesuspension appliziert. Am fünften Tag wurde das Ovarfettgewebe herauspräpariert und gewogen. In der nachfolgenden Tabelle sind die Ergebnisse in % einer mitgeführten Kontrollgruppe wiedergegeben.

[4] = tested on: weiblichen Mäusen eigener Zucht; assay: Antidiabetic effect: blood glucose lowering after subcutaneous glucose load in mice; details: 1 g/kg glucose s.c. 30 min later, serum glucose after a further 30 min
Description: as §1
In der nachstehenden Tabelle sind die bei dieser Versuchsanordnung beobachteten Blutzuckersenkungen in % einer mitgeführten Kontrollgruppe zusammengestellt. Die statistische Auswertung erfolgt nach dem t-Test nach Student mit p=0,05 als Signifikanzgrenze.

[5] = dose 0,3 mg/kg oral, values in ( ) = not significant (p > 0.05)

Question: Which “Anstieg des Glyzerins im Serum, % Änderung vom Wert der Kontrollgruppe” value ([1]; dose 0,3 mg/kg by gavage) does the source give for `CC(Cc1ccc(OCC(=O)O)cc1)NCC(O)c1cccc(Cl)n1` (single isomer, unassigned) [Beispiel 4, N-[2-(4-Carboxymethoxyphenyl)-1-methylethyl]-2-hydroxy-2-(6-chlor-pyridin-2-yl)ethanamin] here?
Answer: +891%

Question: What does the source list for `CC(Cc1ccc(OCCO)cc1)NCC(O)c1cccc(Cl)n1` (single isomer, unassigned) [Beispiel 5]?
Answer: Änderung der Herzfrequenz, % Änderung vom Wert der Kontrollgruppe [2, 5]: (+27) %; Abnahme des Ovarfettgewebes, % Änderung vom Wert der Kontrollgruppe [3]: -54%; Anstieg des Glyzerins im Serum, % Änderung vom Wert der Kontrollgruppe ([1]; dose 0,3 mg/kg by gavage): +878%; Blutzuckersenkungen, % Änderung vom Wert der Kontrollgruppe ([4]; dose 0,3 mg/kg by gavage): -66%

Question: Which results are given for `COC(=O)COc1ccc(CC(C)NCC(O)c2cccc(Cl)n2)cc1` (stereo not drawn) [Beispiel 1, N-[2-(4-Carbomethoxymethoxyphenyl)-1-methylethyl]-2-hydroxy-2-(6-chlor-pyridin-2-yl)ethanamin-hydrochlorid]?
Answer: Änderung der Herzfrequenz, % Änderung vom Wert der Kontrollgruppe ([2]; dose 10 mg/kg oral): +35%; Anstieg des Glyzerins im Serum, % Änderung vom Wert der Kontrollgruppe ([1]; dose 1,0 mg/kg by gavage): +882%; Blutzuckersenkungen, % Änderung vom Wert der Kontrollgruppe ([4]; dose 1,0 mg/kg by gavage): -66%

Question: Which “Änderung der Herzfrequenz, % Änderung vom Wert der Kontrollgruppe” value [2, 5] does the source give for `CC(Cc1ccc(OCCO)cc1)NCC(O)c1cccc(Cl)n1` (stereo not drawn) [Beispiel 2, N-[2-(4-(2-Hydroxyethoxy)phenyl)-1-methylethyl]-2-hydroxy-2-(6-chlor-pyridin-2-yl)ethanamin-hydrochlorid] here?
Answer: (+6,9) %

Question: And the “Anstieg des Glyzerins im Serum, % Änderung vom Wert der Kontrollgruppe” value ([1]; dose 0,1 mg/kg by gavage)?
Answer: +454%

Question: What about the “Blutzuckersenkungen, % Änderung vom Wert der Kontrollgruppe” value ([4]; dose 0,1 mg/kg by gavage) of the same molecule?
Answer: -64%

Question: For `CC(Cc1ccc(OCC(=O)O)cc1)NCC(O)c1cccc(Cl)n1` (stereo not drawn) [Beispiel 3, N-[2-(4-Carboxymethoxyphenyl)-1-methylethyl]-2-hydroxy-2-(6-chlor-pyridin-2-yl)ethanamin], which “Anstieg des Glyzerins im Serum, % Änderung vom Wert der Kontrollgruppe” value ([1]; dose 0,3 mg/kg by gavage) is on record?
Answer: +309%
